# Data from patent US7071180B2, “Certain arylaliphatic and heteroaryl-aliphatic piperazinyl pyrazines and their use in the treatment of serotonin-related diseases” (Biovitrum AB, priority 1999, dated 2006).
# Structures can show the parent of a compound that is named as a salt.
row,SMILES,melting point
1,"c1cc2c(c(OCCOc3nccnc3N3CCNCC3)c1)OCC2 (as salt: maleate) [Example 186, 2-(2,3-Dihydrobenzofuran-7-yloxy)ethyl 3-(1-piperazinyl)-2-pyrazinyl ether]",149 to 154 °C
2,"c1cnc(N2CCNCC2)c(OCCOc2ccc3c(c2)OCCO3)n1 (as salt: hydrochloride) [Example 210, 2-[2-(2,3-Dihydro-1,4-benzodioxin-6-yloxy)ethoxy]-3-(1-piperazinyl)pyrazine]",158 to 160 °C
3,"Fc1cc(F)cc(OCCOc2nccnc2N2CCNCC2)c1 (as salt: toluenesulfonate) [Example 114, 2-[2-(3,5-Difluorophenoxy)ethoxy]-3-(1-piperazinyl)pyrazine]",118 to 119 °C
4,"c1ccc(Nc2ccc(OCCOc3nccnc3N3CCNCC3)cc2)cc1 (as salt: maleate) [Example 111, N-Phenyl-4-(2-{[3-(1-piperazinyl)-2-pyrazinyl]oxy}ethoxy)aniline]",132 to 133 °C
5,"c1ccc2c(c1)OC(COc1nccnc1N1CCNCC1)CS2 (stereo not shown) (as salt: fumarate) [Example 132, 2-(2,3-Dihydro-1,4-benzoxathiin-2-ylmethoxy)-3-(1-piperazinyl)pyrazine]",178 to 179 °C
6,"c1ccc(OCCOc2nccnc2N2CCNCC2)nc1 (as salt: maleate) [Example 152, 2-(2-Pyridyloxy)ethyl 3-(1-piperazinyl)-2-pyrazinyl ether]",130 to 132 °C
7,"Fc1ccccc1OCCOc1nccnc1N1CCNCC1 (as salt: maleate) [Example 95, 2-(2-Fluorophenoxy)ethyl 3-(1-piperazinyl)-2-pyrazinyl ether]",171 to 173 °C
8,"c1cnc(N2CCNCC2)c(OCC2CCCO2)n1 (stereo not shown) (as salt: hydrochloride) [Example 124, 2-(1-Piperazinyl)-3-(tetrahydro-2-furanylmethoxy)pyrazine]",130 to 136 °C
9,"CCC1CNCCN1c1nccnc1OCCOc1cccnc1 (stereo not shown) (as salt: fumarate) [Example 178, 2-Ethyl-1-{3-[2-(3-pyridinyloxy)ethoxy]-2-pyrazinyl}piperazine]",125 to 127 °C
10,"c1cnc(N2CCNCC2)c(OCCOc2ccsc2)n1 (as salt: hydrochloride) [Example 157, 2-(3-Thienyloxy)ethyl 3-(1-piperazinyl)-2-pyrazinyl ether]",75 to 85 °C
11,"CN(CCOc1ccccc1)c1nccnc1N1CCNCC1 (as salt: fumarate) [Example 47, N-Methyl-N-(2-phenoxyethyl)-3-(1-piperazinyl)-2-pyrazinamine]",154 °C
12,"COc1ccccc1/C=C/COc1nccnc1N1CCNCC1 (as salt: maleate) [Example 212, 2-{[(2E)-3-(2-Methoxyphenyl)-2-propenyl]oxy}-3-(1-piperazinyl)pyrazine]",136 °C (dec.)
13,"c1ccc(-c2ccccc2OCCOc2nccnc2N2CCNCC2)cc1 [Example 97, 2-[(1,1′Biphenyl)-2-yloxy]ethyl 3-(1-piperazinyl)-2-pyrazinyl ether]",101 to 103 °C
14,"c1cc(CCCOc2nccnc2N2CCNCC2)ccn1 (as salt: maleate) [Example 127, 2-(1-piperazinyl)-3-[3-(4-pyridinyl)propoxy]pyrazine]",90 to 91 °C
15,"c1cncc(CCCOc2nccnc2N2CCNCC2)c1 (as salt: maleate) [Example 126, 2-(1-piperazinyl)-3-[3-(3-pyridinyl)propoxy]pyrazine]",128 to 130 °C
16,"COc1cccc(OCCOc2nccnc2N2CCNCC2)c1 (as salt: toluenesulfonate) [Example 102, 2-[2-(3-Methoxyphenoxy)ethoxy]-3-(1-piperazinyl)pyrazine]",131 to 133 °C

row,SMILES,melting point
1,"c1cc(OCCOc2nccnc2N2CCNCC2)c2ccncc2c1 (as salt: maleate) [Example 134, 2-(5-Isoquinolinyloxy)ethyl 3-(1-piperazinyl)-2-pyrazinyl ether]",178 to 180.5 °C
2,"c1cnc2c(OCCOc3nccnc3N3CCNCC3)cccc2c1 [Example 138, 2-(8-Quinolinyloxy)ethyl 3-(1-piperazinyl)-2-pyrazinyl ether]",98 to 100 °C
3,"COCc1cccc(OCCOc2nccnc2N2CCNCC2)c1 (as salt: maleate) [Example 109, 2-{2-[3-(Methoxymethyl)phenoxy]ethoxy}-3-(1-piperazinyl)pyrazine]",114 to 115 °C
4,"c1cc(OCCOc2nccnc2N2CCNCC2)c2c(c1)OCCO2 [Example 79, 2-(2,3-Dihydro-1,4-benzodioxin-5-yloxy)ethyl 3-(1-piperazinyl)-2-pyrazinyl ether]",98 to 99 °C
5,"c1ccc(OCCOc2cccnc2N2CCNCC2)cc1 (as salt: hydrochloride) [Example 185, 1-[3-(2-Phenoxyethoxy)-2-pyridinyl]piperazine]",91 to 120 °C
6,"c1cc(OCCOc2nccnc2N2CCNCC2)c2ncoc2c1 (as salt: maleate) [Example 159, 2-(1,3-Benzoxazol-4-yloxy)ethyl 3-(1-piperazinyl)-2-pyrazinyl ether]",191 to 193 °C
7,"C[C@@H]1CNCCN1c1nccnc1OCCOc1cccnc1Br (as salt: fumarate) [Example 196, (2R)-1-(3-{2-[(2-Bromo-3-pyridinyl)oxy]ethoxy}-2-pyrazinyl)-2-methylpiperazine]",154 °C
8,"c1ccc(Nc2cccc(OCCOc3nccnc3N3CCNCC3)c2)cc1 (as salt: fumarate) [Example 107, N-Phenyl-3-(2-{[3-(1-piperazinyl)-2-pyrazinyl]oxy}ethoxy)aniline]",78 to 81 °C
9,"c1cncc(OCCOc2nc3cscc3nc2N2CCNCC2)c1 (as salt: maleate) [Example 165, 2-[2-(3-Pyridinyloxy)ethoxy]3-(1-piperazinyl)thieno[3,4-b]pyrazine]",152 to 156 °C
10,"COc1ccc(C)cc1OCCOc1nccnc1N1CCNCC1 (as salt: maleate) [Example 144, 2-[2-(2-Methoxy-5-methylphenoxy)ethoxy]-3-(1-piperazinyl)pyrazine]",148 to 149 °C
11,"c1ccc(OCCOc2nc3ccccc3nc2N2CCNCC2)cc1 (as salt: hydrochloride) [Example 3, 2-(2-Phenoxyethoxy)-3-(1-piperazinyl)quinoxaline]",123 to 126 °C
12,"c1ccc2c(c1)CCC(COc1nccnc1N1CCNCC1)C2 (stereo not shown) (as salt: fumarate) [Example 207, 3-(1-piperazinyl)-2-pyrazinyl 1,2,3,4-tetrahydro-2-naphthalenylmethyl ether]",186 to 188 °C
13,"CC1CNCCN1c1nc2ccccc2nc1OCCOc1cccc2c1OCO2 (stereo not shown) (as salt: hydrochloride) [Example 182, 2-[2-(1,3-Benzodioxol-4-yloxy)ethoxy]-3-(2-methyl-1-piperazinyl)quinoxaline]",133 to 138 °C
14,"c1ccc2c(OCCOc3nccnc3N3CCNCC3)csc2c1 (as salt: maleate) [Example 156, 2-[2-(1-Benzothien-3-yloxy)ethoxy]-3-(1-piperazinyl)pyrazine]",147 to 149 °C
15,"CC(=O)Nc1cccc(OCCOc2nccnc2N2CCNCC2)c1 (as salt: maleate) [Example 119, 2-[2-(3-Acetamidophenoxy)ethoxy]-3-(1-piperazinyl)pyrazine]",154 to 155 °C
